Where two headings read alike, the source gives them in different places.
Test system: Aβ1-42 production
Assay: Cellular assay for inhibition of Aβ1-42 production (H4 APP751 SWE clone 8.20)
Assay type: cell-based
Conditions: H4 APP751 SWE clone 8.20 cells, 19 h incubation
In short: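 Secreted peptide was quantified with a two-antibody homogeneous format combining Wallac-labelled 565, which recognises the Aβ42 end, and APC-labelled 26D6 at 0.8 and 75 ng/well respectively. Antibodies were diluted in 40 mM Tris-HCl, pH 7.4, 0.2% BSA and left overnight at 4 °C after a 19 h compound incubation.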

[1] = 19 h, class symbols, read-out: Activity Rating (Aβ42 cellular IC50)
[2] = class symbols, read-out: Activity Rating (Aβ42 cellular IC50)
[3] = 19 h, read-out: Activity Rating (Aβ42 cellular IC50), numeric value

SMILES | IC50 [1] [nM] | IC50 [2] [nM] | other results
CCNc1nc(Nc2ccc(-n3ncnc3C)c(F)c2)nc2c1COCC2c1ccc(C(F)(F)F)cc1 (centres unmarked) [Example 119B, N4-ethyl-N2-(3-fluoro-4-(5-methyl-1H-1,2,4-triazol-1-yl)phenyl)-8-(4-(trifluoromethyl)phenyl)-7,8-dihydro-5H-pyrano[4,3-d]pyrimidine-2,4-diamine] | 100 to 1000 | – | –
CNc1nc(Nc2ccc(-n3cnc(Cl)c3)c(OC)c2)nc2c1COCC2c1ccc(C(F)(F)F)cc1 (centres unmarked) [Example 120A, N2-(4-(4-chloro-1H-imidazol-1-yl)-3-methoxyphenyl)-N4-methyl-8-(4-(trifluoromethyl)phenyl)-7,8-dihydro-5H-pyrano[4,3-d]pyrimidine-2,4-diamine] | – | 1.5 to 9.9 | –
CNc1nc(Nc2ccc(-n3cnc(Cl)c3)c(OC)c2)nc2c1COCC2c1ccc(C(F)(F)F)cc1 (centres unmarked) [Example 120B, N2-(4-(4-chloro-1H-imidazol-1-yl)-3-methoxyphenyl)-N4-methyl-8-(4-(trifluoromethyl)phenyl)-7,8-dihydro-5H-pyrano[4,3-d]pyrimidine-2,4-diamine] | – | 100 to 1000 | –
CCNc1nc(Nc2ccc(-n3cnc(Cl)c3)c(OC)c2)nc2c1COCC2c1ccc(C#N)cc1 (centres unmarked) [Example 121A, 4-(2-(4-(4-chloro-1H-imidazol-1-yl)-3-methoxyphenylamino)-4-(ethylamino)-7,8-dihydro-5H-pyrano[4,3-d]pyrimidin-8-yl)benzonitrile] | 1.5 to 9.9 | – | –
CCNc1nc(Nc2ccc(-n3cnc(Cl)c3)c(OC)c2)nc2c1COCC2c1ccc(C#N)cc1 (centres unmarked) [Example 121B, 4-(2-(4-(4-chloro-1H-imidazol-1-yl)-3-methoxyphenylamino)-4-(ethylamino)-7,8-dihydro-5H-pyrano[4,3-d]pyrimidin-8-yl)benzonitrile] | – | – | IC50 [3]: 120 nM
CNc1nc(Nc2ccc(-n3cnc(Cl)c3)c(OC)c2)nc2c1COCC2c1ccc(OC(F)(F)F)cc1 (centres unmarked) [Example 122A, N2-(4-(4-chloro-1H-imidazol-1-yl)-3-methoxyphenyl)-N4-methyl-8-(4-(trifluoromethoxy)phenyl)-7,8-dihydro-5H-pyrano[4,3-d]pyrimidine-2,4-diamine] | 1.5 to 9.9 | – | –
COc1cc(Nc2nc3c(c(N4CC[C@@H](F)C4)n2)COCC3c2ccc(OC(F)(F)F)cc2)ccc1-n1cnc(Cl)c1 (some centres unmarked) [Example 123A] | 10 to 100 | – | –
COc1cc(Nc2nc3c(c(N4CC[C@@H](F)C4)n2)COCC3c2ccc(OC(F)(F)F)cc2)ccc1-n1cnc(Cl)c1 (some centres unmarked) [Example 123B] | – | – | IC50 [3]: 370 nM
COc1cc(Nc2ncc3c(n2)C(c2ccccc2)CCC3)ccc1-n1cnc(Cl)c1 (centres unmarked) [Example 125, N-(4-(4-chloro-1H-imidazol-1-yl)-3-methoxyphenyl)-8-phenyl-5,6,7,8-tetrahydroquinazolin-2-amine] | 10 to 100 | – | –
CCN(C)c1nc(Nc2ccc(-n3cnc(Cl)c3)c(OC)c2)nc2c1CCCC2c1ccc(F)cc1 (centres unmarked) [Example 126, N^2-(4-(4-Chloro-1H-imidazol-1-yl)-3-methoxyphenyl)-N^4-ethyl-8-(4-fluorophenyl)-N^4-methyl-5,6,7,8-tetrahydroquinazoline-2,4-diamine] | 10 to 100 | – | –
COc1cc(Nc2ncc3c(n2)C(c2ccc(F)cc2)CCC3)ccc1-n1cnc(Cl)c1 (centres unmarked) [Example 128, N-(4-(4-Chloro-1H-imidazol-1-yl)-3-methoxyphenyl)-8-(4-fluorophenyl)-5,6,7,8-tetrahydroquinazolin-2-amine] | 100 to 1000 | – | –
CNc1nc(Nc2ccc(-n3cnc(Cl)c3)c(OC)c2)nc2c1CN(S(C)(=O)=O)CC2c1ccccc1 (centres unmarked) [Example 129A, N2-(4-(4-chloro-1H-imidazol-1-yl)-3-methoxyphenyl)-N4-methyl-6-(methylsulfonyl)-8-phenyl-5,6,7,8-tetrahydropyrido[4,3-d]pyrimidine-2,4-diamine] | 1.5 to 9.9 | – | –
CNc1nc(Nc2ccc(-n3cnc(Cl)c3)c(OC)c2)nc2c1CN(S(=O)(=O)C1CC1)CC2c1ccccc1 (centres unmarked) [Example 130, N2-(4-(4-chloro-1H-imidazol-1-yl)-3-methoxyphenyl)-6-(cyclopropylsulfonyl)-N4-methyl-8-phenyl-5,6,7,8-tetrahydropyrido[4,3-d]pyrimidine-2,4-diamine] | 1.5 to 9.9 | – | –
CCNc1nc(Nc2ccc(-n3cnc(Cl)c3)c(OC)c2)nc2c1CN(C(=O)OC)CC2c1ccccc1 (centres unmarked) [Example 131, Methyl 2-(4-(4-chloro-1H-imidazol-1-yl)-3-methoxyphenylamino)-4-(ethylamino)-8-phenyl-7,8-dihydropyrido[4,3-d]pyrimidine-6(5H)-carboxylate] | – | 10 to 100 | –
CCNc1nc(Nc2ccc(-n3cnc(Cl)c3)c(OC)c2)nc2c1CN(C(=O)OC)CC2c1ccccc1 (centres unmarked) [Example 131A, Methyl 2-(4-(4-chloro-1H-imidazol-1-yl)-3-methoxyphenylamino)-4-(ethylamino)-8-phenyl-7,8-dihydropyrido[4,3-d]pyrimidine-6(5H)-carboxylate] | – | 1.5 to 9.9 | –
CCNc1nc(Nc2ccc(-n3cnc(Cl)c3)c(OC)c2)nc2c1CN(C(=O)C1CC1)CC2c1ccccc1 (centres unmarked) [Example 132, (2-(4-(4-chloro-1H-imidazol-1-yl)-3-methoxyphenylamino)-4-(ethylamino)-8-phenyl-7,8-dihydropyrido[4,3-d]pyrimidin-6(5H)-yl)(cyclopropyl)methanone] | 10 to 100 | – | –
CCNc1nc(Nc2ccc(-n3cnc(Cl)c3)c(OC)c2)nc2c1CN(C(=O)C1CC1)CC2c1ccccc1 (centres unmarked) [Example 132A, (2-(4-(4-chloro-1H-imidazol-1-yl)-3-methoxyphenylamino)-4-(ethylamino)-8-phenyl-7,8-dihydropyrido[4,3-d]pyrimidin-6(5H)-yl)(cyclopropyl)methanone] | – | – | IC50 [3]: 15 nM
CCNc1nc(Nc2ccc(-n3cnc(Cl)c3)c(OC)c2)nc2c1CN(C(=O)COC)CC2c1ccccc1 (centres unmarked) [Example 133, 1-(2-(4-(4-chloro-1H-imidazol-1-yl)-3-methoxyphenylamino)-4-(ethylamino)-8-phenyl-7,8-dihydropyrido[4,3-d]pyrimidin-6(5H)-yl)-2-methoxyethanone] | – | 10 to 100 | –
CCNc1nc(Nc2ccc(-n3cnc(Cl)c3)c(OC)c2)nc2c1CN(C(=O)COC)CC2c1ccccc1 (centres unmarked) [Example 133A, 1-(2-(4-(4-chloro-1H-imidazol-1-yl)-3-methoxyphenylamino)-4-(ethylamino)-8-phenyl-7,8-dihydropyrido[4,3-d]pyrimidin-6(5H)-yl)-2-methoxyethanone] | – | 1.5 to 9.9 | –
CCNc1nc(Nc2ccc(-n3cnc(Cl)c3)c(OC)c2)nc2c1CN(S(C)(=O)=O)CC2c1ccccc1 (centres unmarked) [Example 134, N2-(4-(4-chloro-1H-imidazol-1-yl)-3-methoxyphenyl)-N4-ethyl-6-(methylsulfonyl)-8-phenyl-5,6,7,8-tetrahydropyrido[4,3-d]pyrimidine-2,4-diamine] | 1.5 to 9.9 | – | –
CCNc1nc(Nc2ccc(-n3cnc(Cl)c3)c(OC)c2)nc2c1CN(S(C)(=O)=O)CC2c1ccccc1 (centres unmarked) [Example 134A, N2-(4-(4-chloro-1H-imidazol-1-yl)-3-methoxyphenyl)-N4-ethyl-6-(methylsulfonyl)-8-phenyl-5,6,7,8-tetrahydropyrido[4,3-d]pyrimidine-2,4-diamine] | – | – | IC50 [3]: 3.6 nM
CCNc1nc(Nc2ccc(-n3cnc(Cl)c3)c(OC)c2)nc2c1CN(C(=O)CN(C)C)CC2c1ccccc1 (centres unmarked) [Example 135, 1-(2-(4-(4-chloro-1H-imidazol-1-yl)-3-methoxyphenylamino)-4-(ethylamino)-8-phenyl-7,8-dihydropyrido[4,3-d]pyrimidin-6(5H)-yl)-2-(dimethylamino)ethanone] | 10 to 100 | – | –
CCNc1nc(Nc2ccc(-n3cnc(Cl)c3)c(OC)c2)nc2c1CN(S(=O)(=O)C1CC1)CC2c1ccccc1 (centres unmarked) [Example 136, N2-(4-(4-chloro-1H-imidazol-1-yl)-3-methoxyphenyl)-6-(cyclopropylsulfonyl)-N4-ethyl-8-phenyl-5,6,7,8-tetrahydropyrido[4,3-d]pyrimidine-2,4-diamine] | 1.5 to 9.9 | – | –
CCNc1nc(Nc2ccc(-n3cnc(Cl)c3)c(OC)c2)nc2c1CN(C(C)=O)CC2c1ccccc1 (centres unmarked) [Example 137, 1-(2-(4-(4-chloro-1H-imidazol-1-yl)-3-methoxyphenylamino)-4-(ethylamino)-8-phenyl-7,8-dihydropyrido[4,3-d]pyrimidin-6(5H)-yl)ethanone] | – | – | IC50 [3]: 11 nM
CCNc1nc(Nc2ccc(-n3cnc(Cl)c3)c(OC)c2)nc2c1CN(C(C)=O)CC2c1ccccc1 (centres unmarked) [Example 137A, 1-(2-(4-(4-chloro-1H-imidazol-1-yl)-3-methoxyphenylamino)-4-(ethylamino)-8-phenyl-7,8-dihydropyrido[4,3-d]pyrimidin-6(5H)-yl)ethanone] | 1.5 to 9.9 | – | –
CCNc1nc(Nc2ccc(-n3cnc(Cl)c3)c(OC)c2)nc2c1CN(S(=O)(=O)CC)CC2c1ccccc1 (centres unmarked) [Example 138, N2-(4-(4-chloro-1H-imidazol-1-yl)-3-methoxyphenyl)-N4-ethyl-6-(ethylsulfonyl)-8-phenyl-5,6,7,8-tetrahydropyrido[4,3-d]pyrimidine-2,4-diamine] | – | 10 to 100 | –
CCNc1nc(Nc2ccc(-n3cnc(Cl)c3)c(OC)c2)nc2c1CN(S(=O)(=O)CC)CC2c1ccccc1 (centres unmarked) [Example 138A, N2-(4-(4-chloro-1H-imidazol-1-yl)-3-methoxyphenyl)-N4-ethyl-6-(ethylsulfonyl)-8-phenyl-5,6,7,8-tetrahydropyrido[4,3-d]pyrimidine-2,4-diamine] | – | 1.5 to 9.9 | –
CCNc1nc(Nc2ccc(-n3cnc(C)n3)c(F)c2)nc2c1CN(S(C)(=O)=O)CC2c1ccccc1 (centres unmarked) [Example 139, N4-ethyl-N2-(3-fluoro-4-(3-methyl-1H-1,2,4-triazol-1-yl)phenyl)-6-(methylsulfonyl)-8-phenyl-5,6,7,8-tetrahydropyrido[4,3-d]pyrimidine-2,4-diamine] | 10 to 100 | – | –
CCNc1nc(Nc2ccc(-n3ncnc3C)c(F)c2)nc2c1CN(S(C)(=O)=O)CC2c1ccccc1 (centres unmarked) [Example 140, N4-ethyl-N2-(3-fluoro-4-(5-methyl-1H-1,2,4-triazol-1-yl)phenyl)-6-(methylsulfonyl)-8-phenyl-5,6,7,8-tetrahydropyrido[4,3-d]pyrimidine-2,4-diamine] | – | 10 to 100 | –

Reference: patent publication US8637525B2, “Compounds for the reduction of beta-amyloid production” (Bristol-Myers Squibb Company, priority 2009, dated 2014)
